Measured values: patent US8562975B2, “Method for stabilizing reduced coenzyme Q10 and composition therefor” (Kaneka Corporation, priority 2002, dated 2013)

Assays:
[1] = Solubility of reduced coenzyme Q10 crystals in fats and oils at 30° C.; type: physicochemical
Experimental: The solubility of the crystals obtained in Production Example 1 in medium-chain fatty acid triglyceride (MCT, C8:C10=6:4), soybean oil, safflower oil, or rice oil at 30° C. is shown in Table 8.

[2] = Storage stability of reduced coenzyme Q10 compositions in the air at 40° C., light-shielded, 3 days (HPLC weight ratio); type: physicochemical; settings: vitamin E content high (4.11% by weight based on the system excluding coenzyme Q10)
Experimental: The purity and reduced coenzyme Q10/oxidized coenzyme Q10 ratio (weight ratio) were determined by the following HPLC analysis.
C18 (product of Waters), 250 mm (in length), 4.6 mm (in inside diameter): mobile phase; C2H5OH/CH3OH=4/3 (v/v): detection wavelength; 210 nm: flow rate; 1 ml/min: retention time of reduced coenzyme Q10; 9.1 min: retention time of oxidized coenzyme Q10; 13.3 min.
The crystals obtained in Production Example 1 were added to soybean oil, glycerol, and a mixture thereof, respectively, to a concentration of 6% by weight, and the resulting mixtures were stored in the air at 40° C. under a light-shielded condition for 3 days, and the reduced coenzyme Q10/oxidized coenzyme Q10 weight ratios in the solutions were determined.
The crystals obtained in Production Example 1 were added to various fats and oils specified in Table 2, respectively, to a concentration of 6% by weight, and the resulting mixtures were stored in the air at 40° C. under a light-shielded condition for 3 days, and the reduced coenzyme Q10/oxidized coenzyme Q10 weight ratios in the solutions were determined.
The crystals obtained in Production Example 1 were added to olive oil to a concentration of 6% by weight, and the resulting mixture was stored in the air at 40° C. under a light-shielded condition for 3 days. […]

Molecule | Solubility ([1]; in MCT (C8:C10=6:4) at 30° C.) | Solubility ([1]; in rice oil at 30° C.) | Solubility ([1]; in safflower oil at 30° C.) | Solubility ([1]; in soybean oil at 30° C.) | effect on stabilization of reduced coenzyme Q10, in words [2]
COc1c(O)c(C)c(C/C=C(\C)CC/C=C(\C)CC/C=C(\C)CC/C=C(\C)CC/C=C(\C)CC/C=C(\C)CC/C=C(\C)CC/C=C(\C)CC/C=C(\C)CCC=C(C)C)c(O)c1OC [Compar. Ex. 1, reduced coenzyme Q10] | 22.4 wt % | 10.2 wt % | 11.1 wt % | 10.9 wt % | 
vitamin E |  |  |  |  | inhibits the stabilization of reduced coenzyme Q10
